Earlier results as cited in publication PMC7395068, “The evolution of strategies to minimise the risk of human drug-induced liver injury (DILI) in drug discovery and development” (Archives of Toxicology, 2020).
Read-outs that look alike come from different tables or passages of the source.

Columns and labels:
[1] = ref Chen 2016, cited from earlier work
[2] = ref Chen 2011, cited from earlier work
[3] = system: primary human hepatocytes, NIH3T3 fibroblasts, BSEP, CYP3A4; conditions: cited from earlier work
[4] = system: HepG2 C3A spheroid, BSEP, Glu/Gal in HepG2 cells, bioactivation; conditions: cited from earlier work
[5] = cited from earlier work
[6] = system: HepG2 cells, primary human hepatocytes; conditions: cited from earlier work
[7] = system: THLE or HepG2 cells, isolated mitochondria, BSEP; conditions: cited from earlier work
PHH = conditions: In vitro Assay; ref Proctor 2017; cited from earlier work
hLiMTs = conditions: In vitro Assay; ref Proctor 2017; cited from earlier work
PHH spheroids = conditions: In vitro Assay; ref Vorrink 2018; cited from earlier work
[8] = system: THLE-Null and THLE-3A4 cells; conditions: In vitro Assay; ref Gustafsson 2014; cited from earlier work
rBsep = conditions: In vitro Assay; ref Dawson 2012; cited from earlier work
human hepatocytes = conditions: cited from earlier work
[9] = In vitro Assay, ref Schadt 2015
[10] = In vitro Assay, ref Williams 2019
[11] = In vitro Assay, ref Garside 2014
[12] = binary in vivo DILI call given beside the severity category
[13] = human DILI concern category (LTKB DILIrank)
[14] = score by FDA drug labelling, scale 1-8

Nc1nc(NC2CC2)c2ncn([C@H]3C=C[C@@H](CO)C3)c2n1 [abacavir]
DILI severity category ([1]; LTKB DILIrank category): vMost-DILI-Concern | DILI Score (FDA) (1-8) ([2]; FDA drug labelling score): 8

CC(C)Cc1ccc(CC(=O)O)cc1 [ibufenac]
DILI +VE (5-8), DILI -VE (-4) [1]: +VE | DILI severity category [1]: vMost-DILI-Concern | Cellular toxicity (3T3 cells) [3, 9]: -VE | Combined Assay [3, 9]: +VE | GSH adduct HML [3, 9]: +VE | Hepatocyte cellular toxicity [3, 9]: -VE | MitoTox 3T3 [3, 9]: -VE | TDI CYP3A4 [3, 9]: -VE | hBSEP inhibition [3, 9]: -VE | Bayesian Machine Learning [4, 10]: +VE | In vivo DILI ([5]; ref Garside 2014): +VE | In vivo DILI ([5]; ref Schadt 2015): +VE | In vivo DILI ([5]; ref Williams 2019): +VE | Cluster 1-6 +VE Assay [6, 11]: +VE

CN(C)CCOc1ccc(/C(=C(/CCCl)c2ccccc2)c2ccccc2)cc1 [toremifene]
DILI +VE (5-8), DILI -VE (-4) [1, 12]: -VE | DILI severity category [1, 13]: Ambiguous DILI-concern | DILI Score (FDA) (1-8) [2, 14]: 3

CC(C(=O)O)c1ccc2oc(-c3ccc(Cl)cc3)nc2c1 (stereo not drawn) [benoxaprofen]
DILI +VE (5-8), DILI -VE (-4) [1]: +VE | DILI severity category [1]: vMost-DILI-Concern | Cellular toxicity (3T3 cells) [3, 9]: -VE | Combined Assay [3, 9]: +VE | GSH adduct HML [3, 9]: -VE | Hepatocyte cellular toxicity [3, 9]: -VE | MitoTox 3T3 [3, 9]: -VE | TDI CYP3A4 [3, 9]: -VE | hBSEP inhibition [3, 9]: -VE | Partition Hybrid HRM Score ([7]; In vitro Assay, ref Aleo 2019): +VE | Ro2 Hybrid HRM Score ([7]; In vitro Assay, ref Aleo 2019): +VE | PHH ATP <100uM (PHH): -VE | hLiMTs ATP <100uM (hLiMTs): -VE | hLiMTs ATP <20 x Cmax (PHH spheroids): -VE | Bayesian Machine Learning [4, 10]: +VE | In vivo DILI ([5]; ref Aleo 2019): +VE | In vivo DILI ([5]; ref Dawson 2012): +VE | In vivo DILI ([5]; ref Garside 2014): +VE | In vivo DILI ([5]; ref Gustafsson 2014): +VE | In vivo DILI ([5]; ref Proctor 2017): +VE | In vivo DILI ([5]; ref Schadt 2015): +VE | In vivo DILI ([5]; ref Vorrink 2018): +VE | In vivo DILI ([5]; ref Williams 2019): +VE | THLE-Null [8]: -VE | THLE-Null/3A4 [8]: -VE | Cluster 1-6 +VE Assay [6, 11]: +VE | Inhibition of rBsep cutoff<1& cmax u>.2 (rBsep): +VE | Inhibition of rBsep cutoff<3 (rBsep): +VE

C[C@]12COC(=O)C[C@@H]1CC[C@@H]1[C@@H]2CC[C@@]2(C)[C@H]1CC[C@]2(C)O [oxandrolone]
DILI +VE (5-8), DILI -VE (-4) [1, 12]: +VE | DILI severity category [1, 13]: vMost-DILI-Concern | DILI Score (FDA) (1-8) [2, 14]: 8

CC(C(=O)O)c1ccc(C(=O)c2cccs2)cc1 (stereo not drawn) [suprofen]
Bayesian Machine Learning ([4]; ref Williams 2019): +VE | In vivo DILI ([5]; ref Garside 2014): +VE | In vivo DILI ([5]; ref Gustafsson 2014): +VE | In vivo DILI ([5]; ref Williams 2019): +VE | THLE-Null [8]: -VE | THLE-Null/3A4 [8]: -VE | Cluster 1-6 +VE Assay [6, 11]: -VE

CN(C)[C@@H]1C(O)=C(C(N)=O)C(=O)[C@@]2(O)C(O)=C3C(=O)c4c(O)cccc4[C@@](C)(O)[C@H]3[C@H](O)[C@@H]12 [oxytetracycline]
DILI +VE (5-8), DILI -VE (-4) [1, 12]: -VE | DILI severity category [1, 13]: Ambiguous DILI-concern | DILI Score (FDA) (1-8) [2, 14]: 2

CC(=O)CC(c1ccccc1)c1c(O)c2ccccc2oc1=O (stereo not drawn) [warfarin]
Cellular toxicity (3T3 cells) [3]: -VE | Combined Assay [3]: -VE | GSH adduct HML [3]: -VE | Hepatocyte cellular toxicity [3]: -VE | MitoTox 3T3 [3]: -VE | TDI CYP3A4 [3]: -VE | hBSEP inhibition [3]: -VE | Structural based (HCI) (human hepatocytes): -VE | Partition Hybrid HRM Score [7]: +VE | Ro2 Hybrid HRM Score [7]: -VE | Bayesian Machine Learning [4]: +VE | Cluster 1-6 +VE Assay [6]: -VE
